System: Myo5 SH3 domain
Test: SPOT analysis of cellulose-bound peptides (WISE), Myo5 SH3 domain (Dataset S4)
Format: binding, Saccharomyces cerevisiae
Conditions: for The normalized value in BLU units: Myo5 SH3 domain
[1] = SPOT analysis of cellulose-bound 14-mer yeast proteome peptides, normalized value, mean where the peptide was synthesized more than once
[2] = SPOT analysis of membrane-bound peptides, normalized value (see methods)
[3] = SPOT analysis of cellulose-bound peptides probed with Myo5 SH3 domain, normalized value
[4] = SPOT analysis of membrane-synthesized peptides probed with Myo5 SH3 domain, normalized value

## KPMLHNVPHDPSLP
[1]
  The normalized value in BLU units: 412.6 BLU

## ATKRKTIPVYPPVQ
[2]
  The normalized value in BLU units: 273.7 BLU

## EKESRHYPIKPPSP
[2]
  The normalized value in BLU units: 179.9 BLU

## HPYMMVYPMSPPPP
[3]
  The normalized value in BLU units (SPOT analysis, Myo5 SH3): 562.8 BLU

## MSWCKERPECPLCR
[1]
  The normalized value in BLU units: 268.5 BLU

## SVNIKCWPLKPSNF
[1]
  The normalized value in BLU units: 56.5 BLU

## SLLAKYQPSLPLVE
[2]
  The normalized value in BLU units: 162.4 BLU

## VLIKFVIPVYPSLP
[3]
  The normalized value in BLU units (SPOT analysis, Myo5 SH3): 561.8 BLU

## LNFPKNIPTIPFYV
[4]
  The normalized value in BLU units (SPOT analysis, Myo5 SH3): 255.7 BLU

## YASQYSRPDGPILL
[1]
  The normalized value in BLU units: 113.5 BLU

## FARTLKIPNEPSPG
[1]
  The normalized value in BLU units: 145.7 BLU

## MYDRKVIPRMPWHD
[4]
  The normalized value in BLU units (SPOT analysis, Myo5 SH3): 357.4 BLU

## RLNSFAPPPNPYAT
[1]
  The normalized value in BLU units: 273.6 BLU

## NPMQKPVPFVPVLD
[4]
  The normalized value in BLU units (SPOT analysis, Myo5 SH3): 420.2 BLU

## IFQSLLHPELPIII
[1]
  The normalized value in BLU units: 239.9 BLU

## YTYSRNEPVIPTKP
[4]
  The normalized value in BLU units (SPOT analysis, Myo5 SH3): 209.5 BLU

## VAPNRIPPKVPVIN
[2]
  The normalized value in BLU units: 61069.9 BLU

## LLEERNNPDIPVDK
[4]
  The normalized value in BLU units (SPOT analysis, Myo5 SH3): 311.9 BLU

## KFFKREYPDIPMIA
[2]
  The normalized value in BLU units: 154.6 BLU

## MFELLCHPKVPVGM
[3]
  The normalized value in BLU units (SPOT analysis, Myo5 SH3): 267.7 BLU

## PCKKKSKPKVPAKN
[2]
  The normalized value in BLU units: 579.8 BLU

## ATGKRKLPGWPSAD
[4]
  The normalized value in BLU units (SPOT analysis, Myo5 SH3): 136.1 BLU

## KMAKKLLPYKPHNS
[4]
  The normalized value in BLU units (SPOT analysis, Myo5 SH3): 707.5 BLU

## LSGTRLVPNCPLLW
[1]
  The normalized value in BLU units: 431.8 BLU

## ITSIRGSPSLPKNK
[4]
  The normalized value in BLU units (SPOT analysis, Myo5 SH3): 370.3 BLU

## SPKKLASPRTPNAN
[3]
  The normalized value in BLU units (SPOT analysis, Myo5 SH3): 276.2 BLU

## GPIIHPGPEPPRYD
[1]
  The normalized value in BLU units: 205.1 BLU

## ASFRKTKPPPPLDF
[4]
  The normalized value in BLU units (SPOT analysis, Myo5 SH3): 169.0 BLU

## GIKVKRIPYSPKSI
[2]
  The normalized value in BLU units: 390.6 BLU

## DVNHRYPPMAPTTV
[4]
  The normalized value in BLU units (SPOT analysis, Myo5 SH3): 175.5 BLU

## FGSNKNNPVPPELT
[4]
  The normalized value in BLU units (SPOT analysis, Myo5 SH3): 171.5 BLU

## DELLLMSPELPADL
[3]
  The normalized value in BLU units (SPOT analysis, Myo5 SH3): 16.0 BLU

## MPNLKRLPIPPLQD
[1]
  The normalized value in BLU units: 306.9 BLU

## DRKNRAPPQRPRFN
[4]
  The normalized value in BLU units (SPOT analysis, Myo5 SH3): 2434.1 BLU

## NLSLRYAPNLPPVI
[4]
  The normalized value in BLU units (SPOT analysis, Myo5 SH3): 778.6 BLU

## NALKLIHPFMPFIS
[1]
  The normalized value in BLU units: 170.3 BLU

## SFIRKRAPTPPAPS
[4]
  The normalized value in BLU units (SPOT analysis, Myo5 SH3): 878.2 BLU

## SLISKRNPCYPYGI
[1]
  The normalized value in BLU units: 483.2 BLU

## DIGSKKLPTGPSKK
[4]
  The normalized value in BLU units (SPOT analysis, Myo5 SH3): 219.8 BLU

## VHVLKYAPDEPNSL
[4]
  The normalized value in BLU units (SPOT analysis, Myo5 SH3): 191.3 BLU

## EKEAKSEPQQPEDN
[2]
  The normalized value in BLU units: 139.0 BLU

## PFGTFTLPADPEYK
[1]
  The normalized value in BLU units: 171.6 BLU

## SFTRMPLPTPPIEG
[3]
  The normalized value in BLU units (SPOT analysis, Myo5 SH3): 287.1 BLU

## PQQNRPLPQLPNRN
[2]
  The normalized value in BLU units: 186.1 BLU

## SATGWLKPAVPIQW
[3]
  The normalized value in BLU units (SPOT analysis, Myo5 SH3): 94.6 BLU

## NGMPRRIPDYPDAF
[4]
  The normalized value in BLU units (SPOT analysis, Myo5 SH3): 223.3 BLU

## PYMYKYLPRFPNLK
[1]
  The normalized value in BLU units: 382.1 BLU

## VFLRLISPTRPSLE
[3]
  The normalized value in BLU units (SPOT analysis, Myo5 SH3): 1635.5 BLU

## TVRTRRRPPPPPIP
[4]
  The normalized value in BLU units (SPOT analysis, Myo5 SH3): 46234.4 BLU

## YPAKLRIPETPVKK
[1]
  The normalized value in BLU units: 219.9 BLU

## YVVKKNFPVSPNYT
[2]
  The normalized value in BLU units: 193.9 BLU

## DETRKLTPCSPGDD
[2]
  The normalized value in BLU units: 230.8 BLU

## VELHFPKPEDPACI
[1]
  The normalized value in BLU units: 14.9 BLU

## QPQHLPPPPPPRAQ
[1]
  The normalized value in BLU units: 76158.3 BLU

## KLDPLGEPFDPNKH
[1]
  The normalized value in BLU units: 275.7 BLU

## GEFFHCSPNIPHYA
[1]
  The normalized value in BLU units: 271.2 BLU

## FFQLMQSPSLPLLM
[1]
  The normalized value in BLU units: 829.6 BLU

## RLQKLDDPKSPYQC
[1]
  The normalized value in BLU units: 127.2 BLU

## SETSHHSPSAPFQR
[3]
  The normalized value in BLU units (SPOT analysis, Myo5 SH3): 257.2 BLU

## SWRSLTKPKIPLYK
[1]
  The normalized value in BLU units: 356.9 BLU

From paper PMC314469, “Protein Interaction Networks by Proteome Peptide Scanning” (PLoS Biology, 2004)
